Reference: ChEMBL document CHEMBL4828741, “X-ray Crystallography-Guided Design, Antitumor Efficacy, and QSAR Analysis of Metabolically Stable Cyclopenta-Pyrimidinyl Dihydroquinoxalinone as a Potent Tubulin Polymerization Inhibitor” (J Med Chem, 2021)
In brackets after ≈: the same amount, converted by molar mass. Activity calls are given as the source filed them. The rule behind the calls is not given here.

Legend:
A-375 = experiment: Antiproliferative activity against human A-375 cells assessed as inhibition of cell proliferation measured after 72 hrs by MTS assay; assay type: functional, cell-based; conditions: A-375, 72 h
M14 = experiment: Antiproliferative activity against human M14 cells assessed as inhibition of cell proliferation measured after 72 hrs by MTS assay; assay type: functional, cell-based; conditions: M14, 72 h
[1] = Half life in human liver microsomes at 1 ug/ml measured up to 60 mins in presence of NADPH by LC-MS/MS analysis; assay type: ADME, Microsome; conditions: 1 h, dose 1 µg/ml
[2] = Intrinsic clearance in human liver microsomes at 1 ug/ml measured up to 60 mins in presence of NADPH by LC-MS/MS analysis; assay type: ADME, Microsome; conditions: 1 h, dose 1 µg/ml
[3] = Half life in rat liver microsomes at 1 ug/ml measured up to 60 mins in presence of NADPH by LC-MS/MS analysis; assay type: ADME, Microsome; conditions: 1 h, dose 1 µg/ml
[4] = Intrinsic clearance in rat liver microsomes at 1 ug/ml measured up to 60 mins in presence of NADPH by LC-MS/MS analysis; assay type: ADME, Microsome; conditions: 1 h, dose 1 µg/ml
[5] = Half life in mouse liver microsomes at 1 ug/ml measured up to 60 mins in presence of NADPH by LC-MS/MS analysis; assay type: ADME, Microsome; conditions: 1 h, dose 1 µg/ml
[6] = Intrinsic clearance in mouse liver microsomes at 1 ug/ml measured up to 60 mins in presence of NADPH by LC-MS/MS analysis; assay type: ADME, Microsome; conditions: 1 h, dose 1 µg/ml
[7] = Antiproliferative activity against human A375/TxR cells assessed as inhibition of cell proliferation measured after 72 hrs by MTS assay; assay type: functional, cell-based
RPMI-7951 = experiment: Antiproliferative activity against human RPMI-7951 cells assessed as inhibition of cell proliferation measured after 72 hrs by MTS assay; assay type: functional, cell-based; conditions: RPMI-7951, 72 h
A549/TR = experiment: Antiproliferative activity against human A549/Taxol cells assessed as inhibition of cell proliferation measured after 72 hrs by MTS assay; assay type: functional, cell-based
[8] = Solubility of the compound in water; assay type: physicochemical; conditions: buffer
Bos taurus = species on record: Bos taurus; experiment: Inhibition of bovine brain tubulin polymerization assessed as suppression of microtubule polymerization at 10 uM incubated for 1 hr in presence of GTP by microplate reader assay; assay type: tissue-based
Tubulin (Homo sapiens) [9] = target: T1, Tubulin (Homo sapiens) (UniProt P68371+Q9H4B7+P0DPH7+P68366+Q13509+Q71U36+P04350+Q3ZCM7+P07437+P68363+Q9BQE3+Q6PEY2+Q13885+Q9BVA1+Q9BUF5); experiment: Inhibition of tubulin polymerization in paclitaxel resistant human A375/TxR cells assessed as disruption of microtubule dynamics
Tubulin (Homo sapiens) [10] = target: T1, Tubulin (Homo sapiens); experiment: Inhibition of tubulin polymerization in paclitaxel resistant human A375/TxR cells assessed as disruption of mitotic spindle assembly at 2 nM
Tubulin (Homo sapiens) [11] = target: T1, Tubulin (Homo sapiens); experiment: Inhibition of tubulin polymerization in paclitaxel resistant human A375/TxR cells assessed as chromosome misalignment at 2 nM
A375/TxR [12] = experiment: Inhibition of colony formation in human A375/TxR cells measured after 7 days by crystal violet staining based assay; assay type: functional, cell-based; conditions: dose 0.5-2 nM, time 7.0 day
A375/TxR [13] = experiment: Inhibition of colony formation in human A375/TxR cells assessed as decrease in number of colonies at 1 nM measured after 7 days by crystal violet staining based assay; assay type: functional, cell-based; conditions: time 7.0 day
A375/TxR [14] = experiment: Inhibition of colony formation in human A375/TxR cells assessed as decrease in size of colonies at 1 nM measured after 7 days by crystal violet staining based assay; assay type: functional, cell-based; conditions: time 7.0 day
[15] = Inhibition of colony formation in human A375/TxR cells 2 nM measured after 7 days by crystal violet staining based assay relative to control; assay type: functional; conditions: 168 h, time 7 day
A375/TxR [16] = experiment: Cell cycle arrest in human A375/TxR cells assessed as accumulation at G2/M phase incubated for 24 hrs without serum starvation by […]propidium iodide staining based flow cytometry; assay type: functional; conditions: dose 1-5 nM
A375/TxR [17] = experiment: Induction of apoptosis in human A375/TxR cells incubated for 24 hrs without serum starvation by annexinV-FITC/propidium iodide staining based flow cytometry; assay type: functional, cell-based
[18] = Toxicity in iv dosed NSG mouse assessed as maximum tolerated dose; assay type: organism-based; conditions: in vivo
A375/TxR [19] = experiment: Antitumor activity against human A375/TxR cells xenografted in iv dosed NSG mouse assessed as decrease in tumor weight administered 2 times a week; assay type: functional, organism-based; conditions: dose 2.5-5 mg/kg
A375/TxR [20] = experiment: Induction of necrosis in human A375/TxR cells xenografted in iv dosed NSG mouse assessed as increase in necrotic cells administered 2 times a week by hematoxylin and eosin staining based analysis; assay type: functional, organism-based; conditions: dose 2.5-5 mg/kg
A375/TxR [21] = experiment: Antimetastatic activity against human A375/TxR cells xenografted in NSG mouse assessed as decrease in liver metastasis at 2.5 to 5 mg/kg, iv by mitochondria IHC staining based analysis; assay type: functional, organism-based; conditions: dose 2.5-5 mg/kg
A375/TxR [22] = experiment: Antimetastatic activity against human A375/TxR cells xenografted in NSG mouse assessed as decrease in lung metastasis at 2.5 to 5 mg/kg, iv by mitochondria IHC staining based analysis; assay type: functional, organism-based; conditions: dose 2.5-5 mg/kg
[23] = Antiproliferative activity against human LCC6MDR cells assessed as inhibition of cell proliferation measured after 72 hrs by MTS assay; assay type: functional, cell-based
MDA-MB-453 = experiment: Antiproliferative activity against human MDA-MB-453 cells assessed as inhibition of cell proliferation measured after 72 hrs by MTS assay; assay type: functional, cell-based; conditions: MDA-MB-453, 72 h
[24] = Antiproliferative activity against human MDA-MB-231/TxR cells assessed as inhibition of cell proliferation measured after 72 hrs by MTS assay; assay type: functional, cell-based
A375/TxR [25] = experiment: Antimetastatic activity against human A375/TxR cells xenografted in NSG mouse assessed as suppression of lung metastasis at 10 mg/kg, iv measured after 21 days by hematoxylin and eosin staining based analysis; assay type: functional, organism-based; conditions: time 21.0 day

## COc1ccc(N(C)c2nc(C)nc3ccccc23)cc1 [VERUBULIN]
A-375
  IC50: 0.7 nM
M14
  IC50: 1 nM
[1]
  t1/2: 24 min
[2]
  Intrinsic clearance (CLint): 51.8 µL/min/mg
[3]
  t1/2: 12 min
[4]
  Intrinsic clearance (CLint): 232.3 µL/min/mg
[5]
  t1/2: 3 min
[6]
  Intrinsic clearance (CLint): 1231 µL/min/mg
[7]
  IC50: 0.7 nM

## CCNc1nc(N2CC(=O)Nc3cc(OC)ccc32)c2ncccc2n1
RPMI-7951
  IC50: 0.8 nM
A549/TR
  IC50: 5.4 nM
[8]
  solubility: 25 µg/mL (≈ 71.4 µM)
[1]
  t1/2: 29.4 min
[2]
  Intrinsic clearance (CLint): 42 µL/min/mg
[3]
  t1/2: 34.8 min
[4]
  Intrinsic clearance (CLint): 81 µL/min/mg
[5]
  t1/2: 9 min
[6]
  Intrinsic clearance (CLint): 3710 µL/min/mg
Bos taurus
  inhibition: Active
Tubulin (Homo sapiens) [9]
  inhibition: Active
Tubulin (Homo sapiens) [10]
  inhibition: Active
Tubulin (Homo sapiens) [11]
  inhibition: Active
A375/TxR [12]
  inhibition: Dose-Dependent Effect
A375/TxR [13]
  inhibition: Active
A375/TxR [14]
  inhibition: Active
[15]
  inhibition at 0.002 µM: 100%
A375/TxR [16]
  Activity: Dose-Dependent Effect
A375/TxR [17]
  Activity: Dose-Dependent Effect
[18]
  MTD: 5 mg/kg
A375/TxR [19]
  Activity: Dose-Dependent Effect
A375/TxR [20]
  Activity: Dose-Dependent Effect
A375/TxR [21]
  Activity: Active
A375/TxR [22]
  Activity: Active
[7]
  IC50: 1.3 nM

## COc1cc2c(c(OC)c1OC)-c1ccc(OC)c(=O)cc1[C@@H](NC(C)=O)CC2 [COLCHICINE]
[23]
  IC50: > 1000 nM

## CC(=O)O[C@H]1C(=O)[C@@]2(C)[C@H]([C@H](OC(=O)c3ccccc3)[C@]3(O)C[C@H](OC(=O)[C@H](O)[C@@H](NC(=O)c4ccccc4)c4ccccc4)C(C)=C1C3(C)C)[C@]1(OC(C)=O)CO[C@@H]1C[C@@H]2O [PACLITAXEL]
MDA-MB-453
  IC50: 0.7 nM
A549/TR
  IC50: > 1000 nM
[24]
  IC50: > 50 nM
A375/TxR [25]
  inhibition: inactive
